# Article PMC3898838, “Design, Synthesis, and Biological Evaluation of an Allosteric Inhibitor of HSET that Targets Cancer Cells with Supernumerary Centrosomes” (Chemistry & Biology, 2013)
# Tests used:
# [1] = system: MCF-7 cells; test: Time-lapse microscopy, mitotic fate; type: cell-based, human; conditions: MCF-7, 200 μM
# Experimental: (§1) Cells were synchronized in G2-M by incubation at 37°C and 5% CO2 for 24 hr with 9 μM of the CDK1 inhibitor RO-3306 (Merck). Cells were released by removal of the RO-3306 and four washings of 10 min each, at 37°C, with prewarmed culture media + 10% FBS. N1E-115 cells were transfected with siRNA (Supplemental Experimental Procedures) and imaged from 6 hr after transfection. Some RO-3306-synchronized cells were released with 200 μM CW069, 100 μM monastrol, or 0.2% DMSO, and imaging started immediately or 1 hr after treatment. Imaging was carried out for 24 hr, or for 4 hr in the case of the CW069/monastrol cotreatment. Imaging was conducted every 5 min in a humidified chamber with 37°C and 5% CO2, using a Nikon Eclipse TE2000-E microscope, and analyzed with NIS-Elements software (Nikon, Tokyo, Japan). The morphology of cells in mitosis and the mitotic fate (bipolar division, multipolar division, or cell death) were analyzed.
# [2] = system: NHDF cells; test: Time-lapse microscopy, mitotic fate; type: cell-based, human; conditions: 200 μM
# Experimental: as §1
# [3] = system: NHDF cells; test: Immunofluorescence, mitotic spindle morphology; type: cell-based, human; conditions: 100 μM and 200 μM, 2.5 hr
# Excerpt: Using IF, we next examined the mitotic phenotypes induced by CW069 in N1E-115 and NHDF cells, with a strong focus on centrosome numbers and mitotic spindle morphology. Antibodies against α-tubulin, CDK5RAP2, and DAPI were employed to visualize MTs, centrosomes, and DNA, respectively. We hypothesized that small-molecule inhibition of HSET would give rise to mitotic spindle defects similar to those reported after HSET knockdown by siRNA transfection ([Kwon et al., 2008]), and this was indeed the case. […] After treatment, the N1E-115 cells formed multipolar spindles due to a lack of centrosome clustering, consistent with HSET inhibition in cells with supernumerary centrosomes (Figure 4C).
# […] Prewarmed 4% paraformaldehyde in PBS was then added to each well to fix the cells before washing with PBS. Permeabilization and blocking was performed by incubating the slides with 1% BSA, 0.3% Triton X-100, 5% goat serum in PBS (PBS/B/0.3%T+5%GS) for 1 hr while shaking them at room temperature (RT). The slides were incubated with primary antibody solutions (mouse monoclonal anti-α-Tubulin [catalog number T9026; Sigma-Aldrich] and rabbit anti-CDK5RAP2 [catalog number A300-554A; Bethyl Laboratories]) at 4°C for 16 hr. […]
# [4] = system: N1E-115 cells; test: SRB growth-inhibition assay; type: cell-based; conditions: Mus musculus, N1E-115, 72 hr, 0.3 μM to 400 μM
# Excerpt: (§2) We next assessed whether CW069 could selectively target proliferation in cancer cells. We used a combination of cell-growth-inhibition assays based on the Sulforhodamine-B (SRB) technique ([Vichai and Kirtikara, 2006]) and IncuCyte live-cell imaging. […] This further highlights that HSET inhibition, unlike that of KSP or CENP-E, provides a unique opportunity to selectively damage malignant cells without harming normal cells.
# (§3) NHDF cells were obtained from PromoCell, and the N1E-115 and HeLa cells were obtained from ATCC/LGC Standards. The BT549, MCF-7 and MDA-MB-231 cells were kind gifts from the Caldas laboratory (CRUK Cambridge Institute) and were originally obtained from ATCC/LGC. All human cells were verified by STR genotyping and all tested negative for mycoplasma. Cells were cultured in Dulbecco’s modified Eagle’s medium (DMEM) supplemented with 10% fetal calf serum (FCS) at 37°C and 5% CO2. All compounds used in the Sulforhodamine B colorimetric (SRB) assay ([Vichai and Kirtikara, 2006]) were dissolved in DMSO and diluted in culture medium to a final concentration of 0.2% DMSO. For the SRB assay and live-cell imaging (using the IncuCyte Kinetic Live Cell Imaging System; Select Science), cells were seeded in 96-well plates at a density of 2,500 cells per well. […] Fluorescence was quantified using an Infinite 200 PRO plate-reader (Tecan) at a wavelength of 545 nm. […]
# [5] = system: NHDF cells; test: SRB growth-inhibition assay; type: cell-based; conditions: Homo sapiens, 72 hr, 0.3 μM to 400 μM
# Excerpt: as §2, §3
# [6] = system: primary adult human bone marrow cells; test: Colony-formation (CFU-GM) assay; type: cell-based; conditions: 85 μM, 100 μM, 150 μM
# [7] = system: N1E-115 cells; test: IncuCyte live-cell imaging, proliferation; type: cell-based, mouse; conditions: N1E-115, 100-350 μM; p = 0.0192 control vs 150 μM
# Excerpt: In order to ascertain whether CW069 could more broadly reduce proliferation in a range of cancer cells, we carried out IncuCyte live-cell imaging on N1E-115 cells and BT549 (with lower but marked centrosome amplification) and MCF-7 (with normal centrosome numbers) breast cancer cells. Cells were imaged for 21 hr prior to treatment with DMSO control (0.2%) and various concentrations of CW069, and then imaged for a further 36 hr. […] It could also be due to another direct or indirect effect, and the role of HSET in the survival of cancer cells with normal centrosome numbers remains to be fully understood.
# NHDF cells were obtained from PromoCell, and the N1E-115 and HeLa cells were obtained from ATCC/LGC Standards. The BT549, MCF-7 and MDA-MB-231 cells were kind gifts from the Caldas laboratory (CRUK Cambridge Institute) and were originally obtained from ATCC/LGC. All human cells were verified by STR genotyping and all tested negative for mycoplasma. […] Fluorescence was quantified using an Infinite 200 PRO plate-reader (Tecan) at a wavelength of 545 nm. […]
# For live-cell imaging, plated cells were imaged prior to treatment for 24 hr and then after treatment for 72 hr. […] Data were analyzed as the percentage of original cell confluency in order to directly compare each compound treatment with the DMSO control.
smiles,measurement,setting,value
O=C(O)c1cc(I)ccc1NC(=O)[C@H](Cc1ccccc1)NCc1ccccc1 [CW069],bipolar division,[1],remained unaffected
same,multipolar anaphase formation,[2],No similar increase in multipolar anaphase formation
same,mitotic spindle morphology,[3],unchanged compared with control
same,IC50,[4],86 ± 10 µM
same,IC50,[5],181 ± 7 µM
same,clonogenic capacity,[6],did not reduce the clonogenic capacity
same,cell proliferation,[7],reduction in cell proliferation
